In patent US12721838B2 (Henry Ford Health System, priority 2020, dated 2026):
“And” between values parts separate entries of the source, which are not always exact repeats. Equal entries are not always repeated. Where two headings read alike, the source gives them in different places.

Legend:
luciferase = target: T1, luciferase (Renilla reniformis, UniProt P27652); assay: Counter-screen with control luciferase-transfected HFF cells; format: cell-based
T1 construct: expressed in transfected cells; host or cells: human foreskin fibroblasts (HFF)
T1 sequence (P27652 1-311): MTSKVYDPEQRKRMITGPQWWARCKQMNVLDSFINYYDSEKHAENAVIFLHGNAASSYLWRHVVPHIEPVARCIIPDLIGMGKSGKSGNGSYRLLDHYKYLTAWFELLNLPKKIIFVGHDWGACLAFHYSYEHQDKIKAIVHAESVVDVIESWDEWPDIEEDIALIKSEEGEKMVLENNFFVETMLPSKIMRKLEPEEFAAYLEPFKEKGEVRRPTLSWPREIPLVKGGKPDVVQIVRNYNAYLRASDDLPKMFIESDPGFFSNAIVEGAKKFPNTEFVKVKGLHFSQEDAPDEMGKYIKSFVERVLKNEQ
Method: Human foreskin fibroblast cells (HFF) cells were transfected with a Trib2-Luciferase (Luc-Trib2) fusion construct. Cells were plated in 96-well tissue culture plates and treated with compounds (10 μM) for 24 hours. Luciferase activity was measured using an EnduRen™ Live cell substrate kit (commercially available from PROMEGA CORP.®, Madison, WI). […] For further development, selected compounds were counter-screened with control luciferase-transfected HFF cells.
The main hurdle to develop agents to inhibit Trib2 is the lack of a quick and easy assay procedure to effectively screen large number of compounds. To overcome this problem, the present disclosure provides a design for a new assay system to measure the active state of Trib2 protein. The present disclosure describes a Trib2-luciferase gene construct by combining the full length human Trib2 gene with the luciferase gene from Renilla. Destabilization of the three-dimensional conformation of the resultant Trib2-luc fusion protein can deliver reportable outcome via alteration in the enzymatic activity of luciferase. A second screen was designed to eliminate compounds that affects the activity of only luciferase. […] Thus, the luciferase-based assay system (involving first screen and a counter-screen) of the present disclosure emerges as an effective way to identify Trib2-targeting drugs using simple gene transfected cell lines in culture.
Here, the screening strategy used to select compounds based on inhibition of luciferase activity in Trib2-Luc cells, but not in Luc cells. Compounds screened included a representative set of 104 FDA-approved compounds on Trib2-Luciferase fusion construct-transfected HFF cells are shown here. Cells were treated with compounds (10 μM) for 24 hours and measured luciferase activity using a kit from Promega Corp. (Madison, WI). For further development selected compounds are counter-screened with control luciferase-transfected HFF cells.

[1] = tested on: NCI-H226, SK-MES-1, NCI-H2228 and NCI-H596 lung cancer cell lines; assay: 72-hour cell viability assay in lung cancer cell lines; format: cell-based, human
LNCaP-ENR cells [2] = assay: Apoptosis by Annexin V binding, flow cytometry; format: cell-based, human; details: LNCaP-ENR cells, 8 μM, 24 hours, flow cytometry
Method: To test DCV effects on cancer cell apoptosis, LNCaP-ENR cells were treated with 8 μM DCV for 24 hours and analyzed by flow cytometry. Treatment with DCV indicated increased Annexin V binding, a read-out for apoptosis (FIG. 3C).

p-glycoprotein (PGP) = p-glycoprotein (PGP) (Homo sapiens, UniProt P08183); details: cited from earlier work
[3] = cited from earlier work
LNCaP-ENR cells [4] = assay: Soft-agar colony formation assay; format: cell-based, human; details: LNCaP-ENR (ERPC) cells, three weeks; DCV at 8 μM
Method: Effect of DCV on soft-agar colony formation was also analyzed. LNCaP-ENR cells (10,000 per well in 6-well plates) were plated in 0.3% soft-agar on top of a base layer of 0.6% agar. The cells were treated with DCV and incubated at 37° C. for three weeks in the CO2 incubator. Cells were given fresh media and drug every fourth day. At the end of the incubation period, colonies were stained with 0.025% crystal violet, and pictures of colonies were taken with a Nikon digital camera at ×200. Image processing was done using Q-Capture Pro-7 software. Exemplary methods of the foregoing technique can be found in Sarveswaran, Sivalokanathan et al. “Inhibition of 5-lipoxygenase downregulates stemness and kills prostate cancer stem cells by triggering apoptosis via activation of c-Jun N-terminal kinase.” Oncotarget vol. 10, 4 424-436. 11 Jan. 2019, the disclosure of which is incorporated herein by reference in its entirety.

[5] = cited from earlier work; remark: listed apart in the source
LNCaP-ENR cells [6] = assay: MTS/PES cell viability assay, ERPC cells; format: cell-based, human
Method: Plates were incubated for 72 hours at 37° C. in a CO2 incubator. Cell viability was measured by MTS/PES cell titer assay (Promega Corp., Madison, WI).

[7] = in vivo; cited from earlier work
[8] = tested on: pAkt, Bcl-xL, Survivin, and FOXO3; assay: Western blot of TRIB2 downstream targets in LNCaP-ENR cells; format: cell-based, human; details: 12 μM, 24 hours
Method: LNCaP-ENR cells were treated with varying doses (4 μM, 8 μM, or 12 μM) of DCV for 24 hours. Effects on TRIB2 protein levels and its downstream targets (e.g., pAkt, Bcl-xL, Survivin, and FOXO3) were analyzed by Western blot. GAPDH was used as loading control. Protein levels of TRIB2, pAKT (S473), Bcl-xL, and Survivin were reduced in cells treated with 12 μM of DCV compared to control-treated cells (FIG. 3A). Levels of FOXO3 protein were increased at 12 μM of DCV treatment compared to control treatment. This was expected, as FOXO3 level is known to be decreased by Trib2. These effects on cellular protein levels were DCV concentration-dependent, with the most pronounced effects observed at the highest concentration tested (12 μM).

Trib2-OE cells = assay: Enzalutamide sensitivity of Trib2-overexpressing prostate cancer cells; format: cell-based, human; details: Trib2-OE cells, DCV 6 μM
Text: Prostate cancer cells were transfected with full length human gene to overexpress Trib2 (FIG. 18). […] Trib2 siRNA was used in parallel experiments as a positive control.

normal, non-cancer cells = assay: Effects on normal, non-cancer cells; format: cell-based; details: same experimental conditions as ERPC cells

Sequence of p-glycoprotein (PGP) (P08183 whole entry): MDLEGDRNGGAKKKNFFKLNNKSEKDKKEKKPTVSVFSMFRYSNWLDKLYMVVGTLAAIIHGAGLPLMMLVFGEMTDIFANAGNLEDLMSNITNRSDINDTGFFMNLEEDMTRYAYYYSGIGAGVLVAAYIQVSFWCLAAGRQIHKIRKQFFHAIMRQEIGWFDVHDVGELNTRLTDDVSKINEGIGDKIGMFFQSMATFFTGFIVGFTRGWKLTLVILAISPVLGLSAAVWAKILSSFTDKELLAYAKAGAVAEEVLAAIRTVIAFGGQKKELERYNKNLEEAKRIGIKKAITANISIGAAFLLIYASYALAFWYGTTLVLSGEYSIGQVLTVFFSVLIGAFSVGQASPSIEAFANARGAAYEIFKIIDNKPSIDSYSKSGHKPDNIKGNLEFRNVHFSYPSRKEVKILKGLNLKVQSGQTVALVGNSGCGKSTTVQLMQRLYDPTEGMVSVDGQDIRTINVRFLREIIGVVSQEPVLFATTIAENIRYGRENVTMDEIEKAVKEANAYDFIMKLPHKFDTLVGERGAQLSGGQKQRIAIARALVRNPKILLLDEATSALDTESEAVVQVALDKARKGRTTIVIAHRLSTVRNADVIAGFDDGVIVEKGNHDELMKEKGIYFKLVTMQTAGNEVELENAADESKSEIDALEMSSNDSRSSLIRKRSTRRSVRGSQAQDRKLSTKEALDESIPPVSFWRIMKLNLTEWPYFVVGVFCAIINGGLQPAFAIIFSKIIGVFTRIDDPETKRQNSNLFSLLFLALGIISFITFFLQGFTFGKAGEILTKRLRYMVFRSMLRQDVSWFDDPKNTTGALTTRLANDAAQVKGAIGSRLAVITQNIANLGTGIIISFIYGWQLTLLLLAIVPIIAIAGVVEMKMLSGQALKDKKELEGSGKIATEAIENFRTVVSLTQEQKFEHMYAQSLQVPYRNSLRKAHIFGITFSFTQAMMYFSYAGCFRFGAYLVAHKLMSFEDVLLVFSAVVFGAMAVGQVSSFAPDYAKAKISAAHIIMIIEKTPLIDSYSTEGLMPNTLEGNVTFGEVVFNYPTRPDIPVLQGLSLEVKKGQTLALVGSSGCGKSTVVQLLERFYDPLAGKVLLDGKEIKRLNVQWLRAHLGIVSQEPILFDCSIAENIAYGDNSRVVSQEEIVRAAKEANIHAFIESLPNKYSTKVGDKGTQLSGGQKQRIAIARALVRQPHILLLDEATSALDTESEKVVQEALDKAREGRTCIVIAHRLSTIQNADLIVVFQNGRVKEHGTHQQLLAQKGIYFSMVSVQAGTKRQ

COC(=O)N[C@H](C(=O)N1CCC[C@H]1c1nc(-c2ccc(-c3ccc(-c4c[nH]c([C@@H]5CCCN5C(=O)[C@@H](NC(=O)OC)C(C)C)n4)cc3)cc2)c[nH]1)C(C)C [Daclatasvir, 4,4′-bis[2-((2S)-1-{(2S)-2-[(methoxycarbonyl)amino]-3-methylbutanoyl}-2-pyrrolidinyl)-1H-imidazol-4-yl]-1,1′-biphenyl]
inhibition of control luciferase activity (counter-screen, without Trib2) (luciferase): passed counter-screen tests | inhibition of control luciferase activity (counter-screen, without Trib2) (luciferase; listed as DCV): does not inhibit control luciferase activity | inhibition of control luciferase activity (counter-screen, without Trib2) (luciferase; listed as daclatasvir): does not inhibit luciferase activity in the absence of Trib2 | killing of lung cancer cells [1]: effectively kills | Annexin V binding (LNCaP-ENR cells [2]): increased | action on p-glycoprotein (PGP) (p-glycoprotein (PGP)): inhibitor | tolerability ([3]; 100 mg po daily): well tolerated | median peak plasma concentration ([3]; after one dose of 60 mg, listed as DCV): ~ 2 μg/ml and 2.5 μM | mean terminal half-life ([3]; in vivo): 12 to 15 h | time to peak plasma concentrations after dosing ([3]; in vivo): 1 to 2 h | time to steady state levels ([3]; in vivo): after three days of administration | soft-agar colony formation (LNCaP-ENR cells [4]): completely blocked | solubility in aqueous solvents [5]: freely soluble | Cell viability (LNCaP-ENR cells [6]; LNCaP-ENR cells, varying doses, 72 hours, MTS/PES): effectively decreased | effective concentration in the pre-clinical prostate cancer modeling (LNCaP-ENR cells [6]; target steady state plasma concentration of planned trial): 4 µM | maximum tolerated dose (MTD) [7]: > 200 mg/kg/day | Levels of FOXO3 protein ([8]; vs control treatment): increased | Protein levels of pAKT (S473), Bcl-xL, and Survivin ([8]; vs control-treated cells): reduced | re-sensitization of resistant cells to enzalutamide (Trib2-OE cells): re-sensitizes resistant cells to enzalutamide | effects on normal, non-cancer cells (normal, non-cancer cells): minimal effects
